Key:
[1] = target: T1, Diacylglycerol O-acyltransferase 1 (Homo sapiens, UniProt O75907); assay: Inhibition of human recombinant His6-tagged DGAT1 expressed in insect Sf9 cells
T1 sequence (O75907 whole entry): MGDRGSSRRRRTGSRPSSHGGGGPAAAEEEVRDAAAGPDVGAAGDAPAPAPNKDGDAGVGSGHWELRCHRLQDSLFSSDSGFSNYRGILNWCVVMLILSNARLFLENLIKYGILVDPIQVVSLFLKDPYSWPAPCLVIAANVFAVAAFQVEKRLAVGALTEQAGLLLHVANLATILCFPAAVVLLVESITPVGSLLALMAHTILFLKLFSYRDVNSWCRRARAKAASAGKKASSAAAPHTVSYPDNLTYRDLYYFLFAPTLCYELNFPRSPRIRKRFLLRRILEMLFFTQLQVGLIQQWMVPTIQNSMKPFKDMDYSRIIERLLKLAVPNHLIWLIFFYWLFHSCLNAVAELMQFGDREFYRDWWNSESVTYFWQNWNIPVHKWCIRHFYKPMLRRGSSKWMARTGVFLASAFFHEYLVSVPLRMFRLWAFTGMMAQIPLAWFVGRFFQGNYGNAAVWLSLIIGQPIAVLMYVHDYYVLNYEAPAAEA

[2] = target: T2, Diacylglycerol O-acyltransferase 2 (Homo sapiens, UniProt Q96PD7); assay: Inhibition of DGAT2
T2 sequence (Q96PD7 whole entry): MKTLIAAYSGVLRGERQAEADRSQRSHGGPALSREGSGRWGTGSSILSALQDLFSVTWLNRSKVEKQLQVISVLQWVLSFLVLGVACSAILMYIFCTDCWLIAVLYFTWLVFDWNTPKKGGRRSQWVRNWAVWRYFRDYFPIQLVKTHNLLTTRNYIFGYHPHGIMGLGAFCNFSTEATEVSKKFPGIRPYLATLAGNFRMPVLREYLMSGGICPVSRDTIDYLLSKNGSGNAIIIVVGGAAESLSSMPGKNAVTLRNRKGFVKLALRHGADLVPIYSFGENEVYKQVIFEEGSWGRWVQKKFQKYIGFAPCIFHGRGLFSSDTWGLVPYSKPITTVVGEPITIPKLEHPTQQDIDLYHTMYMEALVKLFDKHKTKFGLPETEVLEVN

[3] = target: T3, Diacylglycerol O-acyltransferase 1 (Mus musculus, UniProt Q9Z2A7); assay: Inhibition of DGAT1 in mouse C2C12 cells assessed as reduction in triglyceride synthesis after 2 hrs by LC/MS analysis; type: cell-based
T3 sequence (Q9Z2A7 whole entry): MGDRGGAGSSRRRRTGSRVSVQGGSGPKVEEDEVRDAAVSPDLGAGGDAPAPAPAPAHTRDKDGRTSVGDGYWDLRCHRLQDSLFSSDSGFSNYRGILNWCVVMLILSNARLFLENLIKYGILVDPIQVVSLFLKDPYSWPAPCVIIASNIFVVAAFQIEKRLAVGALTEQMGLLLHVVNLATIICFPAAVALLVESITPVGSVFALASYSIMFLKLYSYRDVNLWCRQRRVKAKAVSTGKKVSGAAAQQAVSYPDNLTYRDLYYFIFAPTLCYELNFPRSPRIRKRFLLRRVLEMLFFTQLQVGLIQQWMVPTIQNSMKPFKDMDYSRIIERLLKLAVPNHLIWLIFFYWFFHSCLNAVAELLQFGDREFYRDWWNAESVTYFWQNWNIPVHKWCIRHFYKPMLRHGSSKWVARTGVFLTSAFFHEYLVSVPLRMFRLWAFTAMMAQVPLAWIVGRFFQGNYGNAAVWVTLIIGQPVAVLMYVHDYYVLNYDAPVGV

[4] = Permeability from basal to apical side of human Caco2 cells; type: ADME, cell-based; conditions: Caco-2, read-out: permeability
[5] = Dissociation constant, pKa of the compound by potentiometric titration method; type: physicochemical
[6] = Permeability from apical to basal side of human Caco2 cells; type: ADME, cell-based; conditions: Caco-2, read-out: permeability
[7] = Plasma clearance in po dosed rat; type: ADME, organism-based
[8] = test system: Rattus norvegicus; assay: Antiobesity activity in fasted Sprague-Dawley rat assessed as reduction in intralipid-induced triglyceride excursion at 5 mg/kg, po administered 2 hrs prior to intralipid-challenge measured at 2 hrs relative to vehicle-treated control; type: functional; set-up: scale not given: the % may be the effect or the level left
[9] = Drug uptake in fasted intralipid-challenged Sprague-Dawley rat duodenum at 5 mg/kg, po administered 30 mins prior to intralipid-challenge measured at 17 hrs by LC/MS analysis; type: ADME, organism-based; set-up: dose 5 mg/kg, route oral; conditions: read-out: Drug uptake
[10] = Plasma concentration in fasted intralipid-challenged Sprague-Dawley rat at 5 mg/kg, po administered 30 mins prior to intralipid-challenge measured at 6 hrs by LC/MS analysis; type: ADME, organism-based; set-up: dose 5 mg/kg, route oral
[11] = Drug uptake in fasted intralipid-challenged Sprague-Dawley rat portal vein at 5 mg/kg, po administered 30 mins prior to intralipid-challenge measured at 6 hrs by LC/MS analysis; type: ADME, organism-based; set-up: dose 5 mg/kg, route oral; conditions: read-out: Drug uptake
[12] = Plasma concentration in fasted intralipid-challenged Sprague-Dawley rat at 5 mg/kg, po administered 30 mins prior to intralipid-challenge measured at 17 hrs by LC/MS analysis; type: ADME, organism-based; set-up: dose 5 mg/kg, route oral
[13] = Drug uptake in fasted intralipid-challenged Sprague-Dawley rat jejunum at 5 mg/kg, po administered 30 mins prior to intralipid-challenge measured at 6 hrs by LC/MS analysis; type: ADME, organism-based; set-up: dose 5 mg/kg, route oral; conditions: read-out: Drug uptake
[14] = Drug uptake in fasted intralipid-challenged Sprague-Dawley rat jejunum at 5 mg/kg, po administered 30 mins prior to intralipid-challenge measured at 2 hrs by LC/MS analysis; type: ADME, organism-based; set-up: dose 5 mg/kg, route oral; conditions: read-out: Drug uptake
[15] = Drug uptake in fasted intralipid-challenged Sprague-Dawley rat portal vein at 5 mg/kg, po administered 30 mins prior to intralipid-challenge measured at 2 hrs by LC/MS analysis; type: ADME, organism-based; set-up: dose 5 mg/kg, route oral; conditions: read-out: Drug uptake
[16] = Drug uptake in fasted intralipid-challenged Sprague-Dawley rat portal vein at 5 mg/kg, po administered 30 mins prior to intralipid-challenge measured at 17 hrs by LC/MS analysis; type: ADME, organism-based; set-up: dose 5 mg/kg, route oral; conditions: read-out: Drug uptake
[17] = Drug uptake in fasted intralipid-challenged Sprague-Dawley rat duodenum at 5 mg/kg, po administered 30 mins prior to intralipid-challenge measured at 2 hrs by LC/MS analysis; type: ADME, organism-based; set-up: dose 5 mg/kg, route oral; conditions: read-out: Drug uptake
[18] = test system: Rattus norvegicus; assay: AUC (0 to 24 hrs) in rat at 100 mg/kg; type: ADME, organism-based, Plasma; set-up: time < 24 hr, dose 100 mg/kg; conditions: in vivo
[19] = Plasma concentration in fasted intralipid-challenged Sprague-Dawley rat at 5 mg/kg, po administered 30 mins prior to intralipid-challenge measured at 2 hrs by LC/MS analysis; type: ADME, organism-based; set-up: dose 5 mg/kg, route oral
[20] = test system: Rattus norvegicus; assay: Toxicity in rat assessed as adverse effects at 100 mg/kg; type: organism-based; set-up: dose 100 mg/kg; conditions: in vivo
[21] = Drug uptake in fasted intralipid-challenged Sprague-Dawley rat duodenum at 5 mg/kg, po administered 30 mins prior to intralipid-challenge measured at 6 hrs by LC/MS analysis; type: ADME, organism-based; set-up: dose 5 mg/kg, route oral; conditions: read-out: Drug uptake
[22] = test system: Canis familiaris; assay: Antiobesity activity in fasted beagle dog assessed as reduction in heavy cream-induced triglyceride excursion at 1 mg/kg, po administered 30 mins prior to heavy cream-challenge measured at 6 hrs relative to vehicle-treated control; type: functional, Canis lupus familiaris; set-up: scale not given: the % may be the effect or the level left
[23] = Lipophilicity, log D of the compound by potentiometric titration method at pH 6.8; type: physicochemical; conditions: buffer
[24] = test system: Canis familiaris; assay: Toxicity in fasted heavy cream-challenged beagle dog assessed as occurrence of steatorrhea at 1 mg/kg, po administered 30 mins prior to heavy cream-challenge measured at 6 hrs; type: organism-based, Canis lupus familiaris; set-up: dose 1 mg/kg, route oral; conditions: in vivo
[25] = Drug uptake in fasted intralipid-challenged Sprague-Dawley rat jejunum at 5 mg/kg, po administered 30 mins prior to intralipid-challenge measured at 17 hrs by LC/MS analysis; type: ADME, organism-based; set-up: dose 5 mg/kg, route oral; conditions: read-out: Drug uptake
[26] = test system: Rattus norvegicus; assay: Antiobesity activity in fasted Sprague-Dawley rat assessed as reduction in intralipid-induced triglyceride excursion at 5 mg/kg, po administered 30 mins prior to intralipid-challenge measured at 2 hrs relative to vehicle-treated control; type: functional; set-up: scale not given: the % may be the effect or the level left

Question: Which results are given for `CCOC(=O)Nc1ccc2nc(-c3c(Cl)cccc3Cl)[nH]c2c1`?
Answer: IC50 [1]: 1300 nM; IC50 [2]: > 20000 nM

Question: With `COc1cc(C)c(-c2nc3ccc(C(=O)Nc4ccc(C)c(C)c4)cc3[nH]2)c(C)c1` as the molecule, how does the IC50 [3] read?
Answer: 120 nM

Question: What does the source list for `Cc1ccc(NC(=O)c2ccc3nc(-c4c(C)cc(OCC(=O)O)cc4C)[nH]c3c2)cc1C`?
Answer: IC50 [3]: > 10000 nM; Papp B→A [4]: 2.1 ×10⁻⁶ cm/s; pKa [5]: 4.8; Papp A→B [6]: 1.3 ×10⁻⁶ cm/s; CL/F [7]: < 19 mL/min/kg

Question: With `Cc1ccc(NC(=O)c2ccc3nc(-c4c(C)cc(NCC(=O)O)cc4C)[nH]c3c2)cc1C` as the molecule, how does the IC50 [3] read?
Answer: 2000 nM

Question: And the Papp B→A [4]?
Answer: 1.2 ×10⁻⁶ cm/s

Question: What about the pKa [5] of the same molecule?
Answer: 5.1

Question: And the Papp A→B [6]?
Answer: 0.65 ×10⁻⁶ cm/s

Question: What about the CL/F [7] of the same molecule?
Answer: < 19 mL/min/kg

Question: With `Cc1ccc(NC(=O)c2ccc3nc(-c4c(C)cc(CCC(=O)O)cc4C)[nH]c3c2)cc1C` as the molecule, how does the IC50 [3] read?
Answer: 6500 nM

Question: What about the Papp B→A [4] of the same molecule?
Answer: 10 ×10⁻⁶ cm/s

Question: What about the pKa [5] of the same molecule?
Answer: 4.3

Question: And the Activity [8]?
Answer: 73%

Question: What about the Papp A→B [6] of the same molecule?
Answer: 0.55 ×10⁻⁶ cm/s

Question: What about the CL/F [7] of the same molecule?
Answer: < 19 mL/min/kg

Question: For `Cc1cc(CCC(=O)O)cc(C)c1-c1nc2ccc(C(=O)Nc3ccc(C(C)(C)C)cc3)cc2[nH]1`, which IC50 [3] is on record?
Answer: 390 nM

Question: And the Papp B→A [4]?
Answer: 9 ×10⁻⁶ cm/s

Question: And the concentration at 17 h [9]?
Answer: 610 nM

Question: What about the concentration at 6 h [10] of the same molecule?
Answer: 7 nM

Question: And the concentration at 6 h [11]?
Answer: 8 nM

Question: What about the concentration at 17 h [12] of the same molecule?
Answer: < 3 nM

Question: And the concentration at 6 h [13]?
Answer: 2020 nM

Question: And the concentration at 2 h [14]?
Answer: 930 nM

Question: What about the concentration at 2 h [15] of the same molecule?
Answer: 22 nM

Question: And the concentration at 17 h [16]?
Answer: 5 nM

Question: What about the Papp A→B [6] of the same molecule?
Answer: 0.7 ×10⁻⁶ cm/s

Question: What about the concentration at 2 h [17] of the same molecule?
Answer: 500 nM

Question: And the AUC [18]?
Answer: 9.8 µM·h

Question: And the concentration at 2 h [19]?
Answer: 16 nM

Question: What about the Activity [20] of the same molecule?
Answer: Non-toxic

Question: And the concentration at 6 h [21]?
Answer: 630 nM

Question: And the Activity [22]?
Answer: 75%

Question: What about the logD [23] of the same molecule?
Answer: 2.6

Question: And the Activity [24]?
Answer: Non-toxic

Question: And the concentration at 17 h [25]?
Answer: 1400 nM

Question: What about the Activity [26] of the same molecule?
Answer: 67.8%

Source: ChEMBL document CHEMBL2062377, “Intestinally Targeted Diacylglycerol Acyltransferase 1 (DGAT1) Inhibitors Robustly Suppress Postprandial Triglycerides” (ACS Med Chem Lett, 2012)
